Experimental data as given in patent US20040224958A1, “Pyridopyrimidinone derivatives for treatment of neurodegenerative disease” (priority 2000, published 2004).
pIC50: −log10 of the molar value.

Legend:
cdk4/D = cdk4/D (Homo sapiens, UniProt P11802); experiment: Cyclin-Dependent Kinase 4 (cdk4) Assay; type: biochemical; details: read-out: cdk4/D IC50
Protocol: A typical assay, for instance, measures inhibitory activity against the cyclin D dependent kinase 4 enzyme (cdk4/D). […] The cdk4 assay was carried out as follows.
Cyclin-Dependent Kinase 4 (cdk4) Assay
All components except the ATP were added to the wells, and the plate was placed on a plate mixer for 2 minutes. The reaction was started by adding [^32P]ATP and the plate was incubated at 25° C. for 15 minutes. The reaction was terminated by addition of 0.1 mL of 20% trichloroacetic acid (TCA). The plate was kept at 4° C. for at least 1 hour to allow the substrate to precipitate. The wells were then washed five times with 0.2 mL of 10% TCA and ^32P incorporation was determined with a beta plate counter (Wallac Inc., Gaithersburg, Md.).

Cdk5/p25 = Cdk5/p25 (Homo sapiens, UniProt Q00535); experiment: Cyclin-Dependent Kinase 5 High Throughput Screening (cdk5-HTS) Assay; type: biochemical; details: high throughput screen
Protocol: Cyclin-Dependent Kinase 5 High Throughput Screening (cdk5-HTS) Assay
Enzyme assays for IC50 determinations were performed in 96-Pierce Reacti-Bind™ White Opaque Glutatione Coated Plates (Cat. No. 15240B).
The total volume was 0.100 mL containing a final concentration of 50 mM TRIS (tris[hydroxymethyl]aminomethane) at pH 7.4, 50 mM NaCl, 10 mM MgCl2, 5 mM dithiothreitol, 20 μM ATP containing 16 μCi/mL of Redivue[y33P]ATP (Amersham Pharmacia Biotech Cat. No. AH9968), 1.0 μg/mL Cdk5/p25, 20 μg/mL GST-RbCOOH, and appropriate dilutions of a compound of the present invention. The reaction was started by adding[^33P]ATP, and the plate was shaken for 30 seconds, then incubated at room temperature for 30 minutes. The reaction was terminated by addition of 0.05 mL of 120 mM EDTA. The plate was kept at room temperature for 45 minutes to allow substrate to bind to the walls of the plate. The wells were then washed three times with 0.2 mL of 1×PBS. Once thoroughly dry, 0.140 mL of MicroScint™2O (Packard Bioscience Cat. No. 87-9081) cocktail was added to all wells. The incorporation of ^33P was determined with a beta plate counter (Packard Topcount).

cdk2/cyclinA = cdk2/cyclinA (Homo sapiens, UniProt P24941); experiment: Cyclin-Dependent Kinase Assay cdk2/cyclinA; details: cdk2/A IC50
cdc2/cyclinB = cdc2/cyclinB (Homo sapiens, UniProt P06493); experiment: Cyclin-Dependent Kinase Assay cdc2/cyclinB
cdk2/cyclinE = cdk2/cyclinE (Homo sapiens, UniProt P24941); experiment: Cyclin-Dependent Kinase Assay cdk2/cyclinE; details: cdk2/E IC50

Chain of cdc2/cyclinB (P06493 whole entry): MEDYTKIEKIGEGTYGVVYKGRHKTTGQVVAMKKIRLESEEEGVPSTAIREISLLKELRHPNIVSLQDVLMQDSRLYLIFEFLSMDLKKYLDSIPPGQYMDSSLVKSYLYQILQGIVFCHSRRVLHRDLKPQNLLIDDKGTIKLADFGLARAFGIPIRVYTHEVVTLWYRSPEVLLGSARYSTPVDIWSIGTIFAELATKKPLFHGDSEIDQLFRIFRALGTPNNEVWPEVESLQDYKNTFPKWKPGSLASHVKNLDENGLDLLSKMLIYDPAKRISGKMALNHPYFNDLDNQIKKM
Chain of cdc2/cyclinB (P14635 whole entry, further chain): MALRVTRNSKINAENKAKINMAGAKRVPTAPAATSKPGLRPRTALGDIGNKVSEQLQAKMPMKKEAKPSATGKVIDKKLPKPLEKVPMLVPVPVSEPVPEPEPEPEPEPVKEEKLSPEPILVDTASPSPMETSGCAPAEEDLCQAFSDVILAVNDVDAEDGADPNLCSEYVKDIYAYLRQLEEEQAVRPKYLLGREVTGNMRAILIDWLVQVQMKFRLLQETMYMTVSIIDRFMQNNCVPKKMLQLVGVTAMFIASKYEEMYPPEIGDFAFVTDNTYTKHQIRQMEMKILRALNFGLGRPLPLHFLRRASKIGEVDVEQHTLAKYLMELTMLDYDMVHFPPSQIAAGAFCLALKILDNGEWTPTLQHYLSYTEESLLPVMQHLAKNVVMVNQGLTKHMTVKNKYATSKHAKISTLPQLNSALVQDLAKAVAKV
Chain of cdk4/D (P11802 whole entry): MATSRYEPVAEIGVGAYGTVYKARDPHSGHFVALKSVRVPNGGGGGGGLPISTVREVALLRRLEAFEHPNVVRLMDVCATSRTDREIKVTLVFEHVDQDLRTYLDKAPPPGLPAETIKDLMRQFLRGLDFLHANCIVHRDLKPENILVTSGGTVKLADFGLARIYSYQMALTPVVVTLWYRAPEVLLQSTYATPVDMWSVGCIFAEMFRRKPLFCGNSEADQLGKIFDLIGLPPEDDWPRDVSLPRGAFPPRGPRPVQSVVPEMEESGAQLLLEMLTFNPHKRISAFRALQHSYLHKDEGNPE
Chain of cdk4/D (P24385 whole entry, further chain): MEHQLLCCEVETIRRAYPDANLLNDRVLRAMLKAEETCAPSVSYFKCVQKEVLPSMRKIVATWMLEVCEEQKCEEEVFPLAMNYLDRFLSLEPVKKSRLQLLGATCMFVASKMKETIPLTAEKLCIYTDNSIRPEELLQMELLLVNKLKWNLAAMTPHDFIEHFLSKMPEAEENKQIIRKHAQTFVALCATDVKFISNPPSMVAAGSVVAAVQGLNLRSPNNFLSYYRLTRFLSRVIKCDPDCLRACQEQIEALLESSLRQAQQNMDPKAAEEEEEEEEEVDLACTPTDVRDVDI

Row | Structure (SMILES) | pIC50 (cdk4/D) | pIC50 (Cdk5/p25) | pIC50 (cdk2/cyclinA) | pIC50 (cdc2/cyclinB) | pIC50 (cdk2/cyclinE)
1 | O=c1ccc2cnc(Nc3ccc(C(F)(F)F)cc3)nc2n1CC1CC1 [Example 590, 8-Cyclopropylmethyl-2-(4-trifluoromethyl-phenylamino)-8H-pyrido[2,3-d]pyrimidin-7-one] | 6.34 | 6.80 | 6.49 | 6.19 | 
2 | Cc1ccc(Nc2ncc3ccc(=O)n(C(C)C)c3n2)cc1NS(C)(=O)=O [Example 439, N-[5-(8-Isopropyl-7-oxo-7,8-dihydro-pyrido[2,3-d]pyrimidin-2-ylamino)-2-methyl-phenyl]-methanesulfonamide] | 6.51 | 6.92 | 6.20 | 6.40 | 
3 | CCCn1c(=O)ccc2cnc(Nc3ccc(O)c(CN4CCOCC4)c3)nc21 [Example 355, 2-(4-Hydroxy-3-morpholin-4-ylmethyl-phenylamino)-8-propyl-8H-pyrido[2,3-d]pyrimidin-7-one] |  | 6.52 | 5.96 | 6.30 | 6.17
4 | O=c1ccc2cnc(Nc3cc(Cl)c(O)c(Cl)c3)nc2n1CC(F)(F)F [Example 598, 2-(3,5-Dichloro-4-hydroxy-phenylamino)-8-(2,2,2-trifluoro-ethyl)-8H-pyrido[2,3-d]pyrimidin-7-one] |  | 6.28 | 6.01 | 6.34 | 6.28
5 | CCCCn1c(=O)ccc2cnc(Nc3cc(OC)c(OC)c(OC)c3)nc21 [Example 389, 8-Butyl-2-(3,4,5-trimethoxy-phenylamino)-8H-pyrido[2,3-d]pyrimidin-7-one] |  | 6.70 | 6.06 | 6.35 | 6.49
6 | CCCn1c(=O)ccc2cnc(Nc3cccc(NC(C)=O)c3)nc21 [Example 353, N-[3-(7-Oxo-8-propyl-7,8-dihydro-pyrido[2,3-d]pyrimidin-2-ylamino)-phenyl]-acetamide] |  | 6.64 | 6.34 | 6.15 | 6.49
7 | CCCCn1c(=O)ccc2cnc(Nc3c(F)cc(F)cc3F)nc21 [Example 366, 8-Butyl-2-(2,4,6-trifluoro-phenylamino)-8H-pyrido[2,3-d]pyrimidin-7-one] |  | 6.16 | 6.05 | 5.88 | 6.59
8 | Nc1c(Cl)cc(Nc2ncc3ccc(=O)n(C4CCCC4)c3n2)cc1Cl [Example 557, 2-(4-Amino-3,5-dichloro-phenylamino)-8-cyclopentyl-8H-pyrido[2,3-d]pyrimidin-7-one] | 6.92 | 7.02 | 6.89 | 7.14 | 
9 | CC(C)n1c(=O)ccc2cnc(Nc3ccc(C#N)c(C#N)c3)nc21 [Example 423, 4-(8-Isopropyl-7-oxo-7,8-dihydro-pyrido[2,3-d]pyrimidin-2-ylamino)-phthalonitrile] |  | 6.80 | 5.59 | 5.74 | 5.96
10 | O=c1ccc2cnc(Nc3ccc(F)c(C(F)(F)F)c3)nc2n1C1CCCC1 [Example 534, 8-Cyclopentyl-2-(4-fluoro-3-trifluoromethyl-phenylamino)-8H-pyrido[2,3-d]pyrimidin-7-one] | 6.47 | 7.35 | 6.47 | 6.72 | 
11 | CCCn1c(=O)ccc2cnc(Nc3ccc(F)c(F)c3)nc21 [Example 343, 2-(3,4-Difluoro-phenylamino)-8-propyl-8H-pyrido[2,3-d]pyrimidin-7-one] |  | 6.96 | 6.54 | 6.55 | 6.92
12 | CCCn1c(=O)ccc2cnc(Nc3ccc(OC(F)(F)F)cc3)nc21 [Example 362, 8-Propyl-2-(4-trifluoromethoxy-phenylamino)-8H-pyrido[2,3-d]pyrimidin-7-one] |  | 6.72 | 5.40 | 6.57 | 
13 | O=c1ccc2cnc(Nc3ccc(Br)c(C(F)(F)F)c3)nc2n1CC1CC1 [Example 589, 2-(4-Bromo-3-trifluoromethyl-phenylamino)-8-cyclopropylmethyl-8H-pyrido[2,3-d]pyrimidin-7-one] |  | 6.24 | 6.15 | 5.89 | 6.72
14 | CC(C)n1c(=O)ccc2cnc(Nc3cc(C(F)(F)F)ccc3F)nc21 [Example 428, 2-(2-Fluoro-5-trifluoromethyl-phenylamino)-8-isopropyl-8H-pyrido[2,3-d]pyrimidin-7-one] | 5.62 | 6.05 |  | 5.59 | 5.62
15 | CC(C)n1c(=O)ccc2cnc(Nc3ccc(F)c(Cl)c3)nc21 [Example 419, 2-(3-Chloro-4-fluoro-phenylamino)-8-isopropyl-8H-pyrido[2,3-d]pyrimidin-7-one] | 6.59 | 7.48 |  | 6.85 | 6.92
16 | CCCn1c(=O)ccc2cnc(Nc3cc(OC)cc(C(F)(F)F)c3)nc21 [Example 342, 2-(3-Methoxy-5-trifluoromethyl-phenylamino)-8-propyl-8H-pyrido[2,3-d]pyrimidin-7-one] | 5.66 | 5.85 | 5.74 |  | 6.43
17 | CCn1c(=O)ccc2cnc(Nc3ccc(C#N)c(NC(C)=O)c3)nc21 [Example 299, N-[2-Cyano-5-(8-ethyl-7-oxo-7,8-dihydro-pyrido[2,3-d]pyrimidin-2-ylamino)-phenyl]-acetamide] | 5.82 | 6.00 |  | 5.54 | 5.57
18 | CCC(CC)n1c(=O)ccc2cnc(Nc3cc([N+](=O)[O-])ccc3F)nc21 [Example 504, 8-(1-Ethyl-propyl)-2-(2-fluoro-5-nitro-phenylamino)-8H-pyrido[2,3-d]pyrimidin-7-one] | 6.68 | 6.43 |  | 6.28 | 6.42
19 | CC(C)n1c(=O)ccc2cnc(Nc3ccc(O)c(CN4CCOCC4)c3)nc21 [Example 436, 2-(4-Hydroxy-3-morpholin-4-ylmethyl-phenylamino)-8-isopropyl-8H-pyrido[2,3-d]pyrimidin-7-one] | 5.74 | 6.01 | 6.14 |  | 6.47
20 | CCC(C)n1c(=O)ccc2cnc(Nc3cc(C(F)(F)F)ccc3F)nc21 (stereo not shown) [Example 466, 8-sec-Butyl-2-(2-fluoro-5-trifluoromethyl-phenylamino)-8H-pyrido[2,3-d]pyrimidin-7-one] | 5.82 | 6.51 |  | 5.89 | 5.85
21 | CCCn1c(=O)ccc2cnc(Nc3cc(C(F)(F)F)ccc3F)nc21 [Example 311, 2-(2-Fluoro-5-trifluoromethyl-phenylamino)-8-propyl-8H-pyrido[2,3-d]pyrimidin-7-one] | 5.52 | 5.94 |  | 5.76 | 5.84
22 | CCC(CC)n1c(=O)ccc2cnc(Nc3ccc(F)c(C)c3)nc21 [Example 503, 8-(1-Ethyl-propyl)-2-(4-fluoro-3-methyl-phenylamino)-8H-pyrido[2,3-d]pyrimidin-7-one] | 6.77 | 7.89 |  | 7.10 | 7.44
23 | O=c1ccc2cnc(Nc3ccc(OC(F)(F)F)cc3)nc2n1CC1CC1 [Example 591, 8-Cyclopropylmethyl-2-(4-trifluoromethoxy-phenylamino)-8H-pyrido[2,3-d]pyrimidin-7-one] | 6.68 | 6.85 |  | 5.41 | 5.74
